Tests used:
RBL-2H3 = assay: Influence of VGS mutations on surface expression of human HTR1B in RBL-2H3 cells, flow cytometry after magnetic bead separation (Example 4); type: cell-based; conditions: for Median fluorescence intensity of positive cells, x-median (range) / Percentage of positive cells after selection (range): human HTR1B, MoMLV5′LTR promoter, RBL-2H3, triplicate; for Percentage of positive cells after selection (range): magnetic bead separated
Source text: Vectors were developed for stable expression of human HTR1B without the methionine at position 1 in mammalian cells under the control of Moloney Leukaemia virus 5′-LTR promoter (MoMLV5′LTR, SEQ ID NO: 6). All vectors had the neomycin resistance gene for selection of stable eukaryotic cells and mouse immunoglobulin kappa signal peptide followed by a c-myc tag (EQKLISEEDLN peptide). Vectors included no VGS, native VGS or two VGS mutants (VGS mutant 1 and VGS mutant 2). This experiment was designed to test if serine and threonine at VGS which represent potential […] glycosylation sites are the molecular determinants of improved surface expression. In VGS mutant 1 all 5 serine and threonine were mutated to alanine while in VGS mutant 2 all serine were mutated and 2 threonines were still present.
Each vector was individually electroporated by triplicate using a microporator (Digital Bio Technology, South Korea) into RBL-2H3 and after 48 hours neomycin at 500 ug/mL was added to culture for selection. After selection for about 2 weeks cells were analysed by flow cytometry (Guava Technologies, USA) with anti-cmyc tag antibody (anti-cmyc-FITC, clone 9E10, Sigma-Aldrich, USA) for surface expression. Selected cells were separated by using magnetic beads from Miltenyi and anti-cmyc tag. Results were expressed as percentage of positive cells after subtraction of values from non transfected RBL-2H3 cells incubated with the same anti-cmyc tag antibody. For positive cells median fluorescence intensity (x-median) was taken as a marker of surface receptor density on the surface of positive cells.

WEHI-3B = assay: Surface expression of HT1BR in stably transfected WEHI-3B cells, flow cytometry with anti-cmyc tag antibody (Example 2); type: cell-based, mouse
Source text: (§1) Vectors were developed for stable expression of GPCRs in hematopoietic cells without professional regulated exocytosis under the control of Moloney Leukaemia virus 5′-LTR (MoMLV5′LTR, SEQ ID NO: 6), a good promoter for expression of GPCRs tested previously for more than 20 different GPCRs. The vector had neomycin resistance gene for selection of stable eukaryotic cells, mouse immunoglobulin kappa signal peptide followed by a c-myc tag (EQKLISEEDLN peptide) and the entire HT1BR GPCR without the methionine at position 1. This GPCR is a prototype of a receptor that it is difficult to be expressed into RBL-2H3. Two vectors were developed: one with a heterologous viral-GPCR derived sequence (VGS) and one without VGS. Each vector was individually electroporated using a microporator (Digital Bio Technology, South Korea) into WEHI-3B, a mouse myelomonocytic leukaemia cell line (DSMZ, ACC26) and into BW5147.G.1.4.ovar.1, a mouse lymphoma T cell line (HPA cultures, Cat. No. 88100507) and after 48 hours neomycin was added to culture for selection. After selection for about 2 weeks cells were analysed by flow cytometry (Guava Technologies, USA) with anti-cmyc tag antibody (anti-cmyc-FITC, clone 9E10, Sigma-Aldrich, USA) for surface expression.

HEK293 cells = assay: Surface expression of human HTR1B in stably transfected HEK293 cells, flow cytometry with anti-cmyc tag antibody (Example 3); type: cell-based; conditions: HEK293, MoMLV5′LTR promoter
Source text: Vectors were developed for stable expression of GPCRs in mammalian cells under the control of the following promoters: Moloney Leukaemia virus 5′-LTR (MoMLV5′LTR, SEQ ID NO: 6), human phosphoglycerate kinase promoter (SEQ ID NO: 4) and human elongation factor 1 alpha promoter (hEF1alpha, SEQ ID NO: 3). All vectors had the neomycin resistance gene for selection of stable eukaryotic cells, mouse immunoglobulin kappa signal peptide followed by a c-myc tag (EQKLISEEDLN peptide), a sequence derived from a heterologous viral-GPCR (VGS, SEQ ID NO: 2) and the entire human HTR1B without the methionine at position 1. Such heterologous viral-GPCR derived sequence was included to test if surface expression is improved by certain heterologous viral-GPCR derived sequences in non-hematopoietic cell lines. […] After selection for about 2 weeks cells were analysed by flow cytometry (Guava Technologies, USA) with anti-cmyc tag antibody (anti-cmyc-FITC, clone 9E10, Sigma-Aldrich, USA) for surface expression. Results were expressed as percentage of positive cells after subtraction of values from non transfected HEK293 cells incubated with the same anti-cmyc tag antibody. […] For positive cells mean fluorescence intensity (MFI) was taken as a marker of surface receptor density on the surface of positive cells.

BW5147.G.1.4.ovar.1 = assay: Surface expression of HT1BR in stably transfected BW5147 cells, flow cytometry with anti-cmyc tag antibody (Example 2); type: cell-based, mouse; conditions: MoMLV5′LTR promoter
Source text: as §1

Substance: LAAMAPGAAVGA [VGS mutant 1, all 5 serine and threonine mutated to alanine]
- Median fluorescence intensity of positive cells, x-median (range) (RBL-2H3): 45.6 (44.9-46.2)
- Percentage of positive cells after selection (range) (RBL-2H3): 49.1 (47.5-50.7) %

Substance: LAAMAPGATVGT [VGS mutant 2, all serine mutated, 2 threonines still present]
- Reduction of median fluorescence intensity versus native VGS (RBL-2H3; RBL-2H3, MoMLV5′LTR promoter): 1.43 fold
- Percentage of positive cells after selection (range) (RBL-2H3): 49.2 (48.2-50.2) %

Substance: LSTMAPGSTVGT [VGS native]
- Increase of median fluorescence intensity of positive cells versus no VGS (RBL-2H3; RBL-2H3, MoMLV5′LTR promoter): 2.6 fold
- Median fluorescence intensity of positive cells, x-median (range) (RBL-2H3): 89.3 (87.7-90.9)
- Percentage of positive cells after selection (range) (RBL-2H3): 50.2 (49.2-51.1) %
- Percentage of positive cells after selection (range) (RBL-2H3; listed as native VGS): 50%
- Median fluorescence intensity of positive cells, x-median (range) (RBL-2H3; listed as native VGS): 89.3

Substance: VGS: Heterologous viral-GPCR derived sequence (VGS, SEQ ID NO: 2) added at the amino terminus of the GPCR (CTGAGCACAATGGCCCCAGGCTCCACCGTGGGAACA; expressed or natural sequence)
- Percentage of positive cells after selection (WEHI-3B; HT1BR, WEHI 3B cells, about 2 weeks neomycin selection): about 50%
- Ratio of percentage of positive cells with VGS versus without (WEHI-3B; WEHI-3B cells, MoMLV5′LTR promoter): 1.6 times
- Improvement of percentage of positive cells by inclusion of VGS (HEK293 cells): 2.7 fold
- Ratio of percentage of cells with surface expression with VGS versus without (BW5147.G.1.4.ovar.1): about 15 times

Source: patent publication US9499584B2, “GPCR with improved cell surface expression” (CANVAX BIOTECH S.L, priority 2012, dated 2016)
